# Values of other authors in US8608968B2, “Compositions for bioremediation and methods for using” (Carus Corporation, priority 2006, dated 2013).
# Details: dimensionless
row,SMILES,Henry's Law Constant
1,ClC=C(Cl)Cl [Trichloroethene],0.48
2,C=CCl [Vinyl chloride],0.95
3,C=C [Ethene],8.76
4,"Cl/C=C\Cl [cis-1,2-dichloroethene]",0.31
5,C [Methane],27.2
